Measured values from patent publication US11591326B2, “Inhibitors of protein arginine methyltransferase 5 (PRMT5), pharmaceutical products thereof, and methods thereof” (PHARMABLOCK SCIENCES (NANJING), INC., priority 2018, dated 2023).

Tested on: Z-138 tumor cells
Assay: Mantle cell lymphoma (MCL) Z-138 xenograft efficacy study
Assay type: in vivo, CB-17 female SCID mice
Conditions: administered orally BID for 21 days
Protocol: For the in vivo efficacy studies, CB-17 female SCID mice (19-21 g; 10-12 weeks) were purchased from Shanghai SLAC laboratory animal CO. LTD. Each mouse was inoculated subcutaneously at the right flank with Z-138 tumor cells (5×10^6 cells/mouse, 50% Matrigel) in 0.2 mL of a mixture of base media and Matrigel (RPMI:Matrigel, 1:1) for tumor development. The treatments were started when the mean tumor size reached 121.55 mm^3, which was 11 days after inoculation. Mice were assigned into groups using a randomized block design. Testing compounds or vehicle (5% DMSO+45% PEG400+50% H2O) was administered orally BID for 21 days. Body weights were measured three times per week for the whole duration of the study. Tumor size was measured at the same schedule in two dimensions using a caliper, and the volume was expressed in cubic millimeters. Animals were euthanized 6 h after the final dose on day 21, at which time tumors were collected for analysis.

SMILES: CC(=O)N1CCC(Nc2ccc3c(c2)C(=O)N(C[C@H](O)CN2CCc4ccccc4C2)CCO3)CC1 [Compound 52a, (R)-7-((1-acetylpiperidin-4-yl)amino)-4-(3-(3,4-dihydroisoquinolin-2(1H)-yl)-2-hydroxypropyl)-3,4-dihydrobenzo[f][1,4]oxazepin-5(2H)-one]
- result in Z-138 xenograft efficacy studies (tumor volume change, FIG. 1): promising result
